Source: patent US8101774B2, “Ester derivatives and medicinal use thereof” (Japan Tobacco Inc., priority 2004, dated 2012)

Biological target: T1, Microsomal triglyceride transfer protein (MTP) from human small intestine microsome (Homo sapiens, UniProt P55157)
T1 construct: Human small intestine microsome was dialyzed against 10 mM phosphate buffer; tissue Tissue Transforming Technologies, Inc; host or cells: human small intestine microsome
Experiment: Inhibition test of interliposomal triglyceride (TG) transfer activity by MTP
Type: biochemical
Details: purified MTP from human small intestine microsome, 37° C., 1.5 hours
Experimental: Microsomal triglyceride transfer protein (MTP) from human small intestine microsome (manufactured by Tissue Transforming Technologies, Inc.) was purified in such a way described below. Human small intestine microsome was dialyzed against 10 mM phosphate buffer (300 mL, pH 6.8) twice for about 2 hours and once for further not less than 12 hours, at about 4° C. After dialysis, the mixture was centrifuged at 4° C. and 15,000×g for 5 minutes and then the supernatant was recovered. The previously recovered supernatant was purified by column chromatography on diethylaminoethyl (DEAE) Sepharose using FPLC (Fast Performance Liquid Chromatography) system, and the purified MTP was used for the test as described below.
Small unilamellar-vesicle (SUV) liposome (hereinafter described as donor, containing 0.25% (mol/mol) triolein and 5% (mol/mol) cardiolipin) constituted by triolein labeled with ^14C and non-labeled SUV liposome (hereinafter described as acceptor, containing […] triolein) were prepared in such a way described below.
Firstly, in order to prepare the donor, there were volatilized under a stream of nitrogen gas a phosphatidylcholine solution containing phosphatidylcholine labeled with ^3H, a cardiolipin solution, and a triolein solution containing triolein labeled with ^14C (each solution had been already dissolved in an appropriate organic solvent), or in order to prepare the acceptor, there were volatilized under nitrogen flow a phosphatidylcholine solution containing phosphatidylcholine labeled with ^3H and a cardiolipin solution (each solution had been already dissolved in an appropriate organic solvent). An appropriate amount of a reaction buffer (15 mM Tris-HCl buffer containing 1 mM EDTA.Na2, 40 mM NaCl, and 0.5% (w/v) bovine serum albumin, pH 7.4) was added thereto to be emulsified. The emulsions were treated with ultrasonication under ice-cooling and centrifuged at 4° C. and 159,000×g for 2 hours. Each of the resulting supernatant was used for donor or acceptor.
Each radioactivity in the acceptor and the donor was measured by liquid scintillation counter, and a mixed solution of the acceptor and the donor was prepared with a reaction buffer so as to be a donor-derived radioactivity of 16,000 dpm/400 μL and a acceptor-derived radioactivity of 4,000 dpm/[…]. 400 μL of the mixed solution of the donor and the acceptor, 45 μL of the reaction buffer, 50 μL of MTP (20 μg/mL), and 5 μL of a sample dissolved in DMSO (dimethyl sulfoxide) or 5 μL of DMSO was mixed (total amount: 500 μL). The mixture was incubated at 37° C. for 1.5 hours. After completion of the incubation, 1.25 mL of a suspension of DEAE cellulose (66.7% (v/v)) in 15 mM Tris-HCl buffer (pH 7.4) containing 1 mM EDTA.Na2 was added to the above solution. The mixture was centrifuged to separate the donor (adsorbed on the DEAE cellulose to precipitate) and the acceptor (the supernatant). The radioactivity in the acceptor was measured by liquid scintillation counter. The value obtained by subtracting the radioactivity in a blank group from the radioactivity in the acceptor of a DMSO group was determined as MTP-mediated TG transfer activity, and it was compared with the value obtained by subtracting the radioactivity in the blank group from the radioactivity in a sample group. Here, the blank was prepared by adding 10 mM phosphate buffer (pH 6.8) containing 250 mM NaCl in place of MTP. Inhibition rate (%) was calculated from values obtained according to the following equation. Inhibition rate(%)=(1 minus((radioactivity of sample group minus radioactivity of blank group)/(radioactivity of DMSO group minus radioactivity of blank group)))×100.
50% Inhibition rate (IC50) was determined on the basis of the above equation.

T1 sequence (P55157 19-894): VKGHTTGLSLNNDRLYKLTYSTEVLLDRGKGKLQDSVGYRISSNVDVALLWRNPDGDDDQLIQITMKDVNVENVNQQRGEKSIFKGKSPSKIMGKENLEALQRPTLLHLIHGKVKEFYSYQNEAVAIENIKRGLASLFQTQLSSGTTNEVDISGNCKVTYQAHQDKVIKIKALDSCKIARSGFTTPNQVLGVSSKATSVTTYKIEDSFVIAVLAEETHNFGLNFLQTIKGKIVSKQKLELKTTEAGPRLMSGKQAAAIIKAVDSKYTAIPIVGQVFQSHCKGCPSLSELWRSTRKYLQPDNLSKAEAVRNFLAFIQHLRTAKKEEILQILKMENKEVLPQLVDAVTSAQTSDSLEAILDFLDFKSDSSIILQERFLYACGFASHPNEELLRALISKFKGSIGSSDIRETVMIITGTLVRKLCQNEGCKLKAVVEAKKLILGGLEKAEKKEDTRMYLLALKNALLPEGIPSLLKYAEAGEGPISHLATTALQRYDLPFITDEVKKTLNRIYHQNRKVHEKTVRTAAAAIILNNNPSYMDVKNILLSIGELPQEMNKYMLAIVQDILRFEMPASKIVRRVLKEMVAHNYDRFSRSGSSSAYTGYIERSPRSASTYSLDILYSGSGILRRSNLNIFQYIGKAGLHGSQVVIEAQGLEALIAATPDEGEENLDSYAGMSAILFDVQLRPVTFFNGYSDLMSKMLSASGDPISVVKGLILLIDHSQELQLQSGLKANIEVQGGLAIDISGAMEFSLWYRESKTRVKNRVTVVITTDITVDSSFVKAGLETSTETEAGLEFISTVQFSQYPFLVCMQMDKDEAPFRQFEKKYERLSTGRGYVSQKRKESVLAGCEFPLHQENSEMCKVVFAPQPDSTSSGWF
T1 sequence (P07237 18-508 partner): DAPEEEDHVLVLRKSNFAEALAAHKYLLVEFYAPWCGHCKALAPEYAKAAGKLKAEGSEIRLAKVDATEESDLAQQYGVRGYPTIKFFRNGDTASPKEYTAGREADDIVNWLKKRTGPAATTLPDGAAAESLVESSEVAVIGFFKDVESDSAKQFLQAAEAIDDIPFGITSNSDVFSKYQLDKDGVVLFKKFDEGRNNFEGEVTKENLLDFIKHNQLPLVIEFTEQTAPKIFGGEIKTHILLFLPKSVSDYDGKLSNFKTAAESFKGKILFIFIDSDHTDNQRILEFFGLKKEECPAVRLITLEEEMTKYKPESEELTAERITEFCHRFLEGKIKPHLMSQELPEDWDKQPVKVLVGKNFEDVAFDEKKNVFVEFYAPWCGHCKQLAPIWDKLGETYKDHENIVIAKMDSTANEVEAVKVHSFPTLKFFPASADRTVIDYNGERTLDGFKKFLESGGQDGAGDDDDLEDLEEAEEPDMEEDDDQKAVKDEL

| Compound | IC50 [nM] |
| --- | --- |
| 3-chloro-4-[4-(3-dimethylcarbamoyl-4-{[6-methyl-2-(4-trifluoromethylphenyl)pyridine-3-carbonyl]amino}phenyl)butyryloxy]-5-methoxybenzoic acid methyl ester sulfonate [Compound 1-56] | < 10 |
| Cc1noc(-c2ccc(OC(=O)CCCc3ccc(NC(=O)c4ccccc4-c4ccc(C(F)(F)F)cc4)c(C(=O)N(C)C)c3)cc2)n1 [Compound 1-2, 4-{3-dimethylcarbamoyl-4-[(4′-trifluoromethylbiphenyl-2-carbonyl)amino]phenyl}butyric acid 4-(3-methyl-[1,2,4]oxadiazol-5-yl)phenyl ester] | < 10 |
| CN(C)C(=O)c1cc(CC(=O)Oc2ccccc2)ccc1NC(=O)c1ccccc1-c1ccc(C(F)(F)F)cc1 [Compound 1-3, {3-dimethylcarbamoyl-4-[(4′-trifluoromethylbiphenyl-2-carbonyl)amino]phenyl}acetic acid phenyl ester] | 100 to 1000 |
| CCOC(=O)c1ccc(OC(=O)CCCc2ccc(NC(=O)c3ccccc3-c3ccc(C(F)(F)F)cc3)c(C(=O)N(C)C)c2)cc1 [Compound 1-6, 4-(4-{3-dimethylcarbamoyl-4-[(4′-trifluoromethylbiphenyl-2-carbonyl)amino]phenyl}butyryloxy)benzoic acid ethyl ester] | < 10 |
| COC(=O)c1ccc(OC(=O)CCCc2ccc(NC(=O)c3ccccc3-c3ccc(C(F)(F)F)cc3)c(C(=O)N(C)C)c2)c(Cl)c1 [Compound 1-11, 3-chloro-4-(4-{3-dimethylcarbamoyl-4-[(4′-trifluoromethylbiphenyl-2-carbonyl)amino]phenyl}butyryloxy)benzoic acid methyl ester] | < 10 |
| COC(=O)c1ccc(OC(=O)CCCc2ccc(NC(=O)c3ccccc3-c3ccc(C(F)(F)F)cc3)c(C(=O)N(C)C)c2)c(OC)c1 [Compound 1-12, 4-(4-{3-dimethylcarbamoyl-4-[(4′-trifluoromethylbiphenyl-2-carbonyl)amino]phenyl}butyryloxy)-3-methoxybenzoic acid methyl ester] | < 10 |
| COC(=O)c1ccc(OC(=O)CCCc2ccc(NC(=O)c3ccc(C)nc3-c3ccc(C(F)(F)F)cc3)c(C(=O)N(C)C)c2)cc1 [Compound 1-13, 4-[4-(3-dimethylcarbamoyl-4-{[6-methyl-2-(4-trifluoromethylphenyl)pyridine-3-carbonyl]amino}phenyl)butyryloxy)benzoic acid methyl ester] | < 10 |
| COC(=O)c1ccc(OC(=O)CCCc2ccc(NC(=O)c3ccccc3-c3ccc(C(F)(F)F)cc3)c(C(=O)N(C)C)c2)cc1OC [Compound 1-17, 4-(4-{3-dimethylcarbamoyl-4-[(4′-trifluoromethylbiphenyl-2-carbonyl)amino]phenyl}butyryloxy)-2-methoxybenzoic acid methyl ester] | 10 to 100 |
| COC(=O)c1ccc(OC(=O)CCCc2ccc(NC(=O)c3ccccc3-c3ccc(C(F)(F)F)cc3)c(C(=O)N(C)C)c2)cc1Cl [Compound 1-18, 2-chloro-4-(4-{3-dimethylcarbamoyl-4-[(4′-trifluoromethylbiphenyl-2-carbonyl)amino]phenyl}butyryloxy)benzoic acid methyl ester] | < 10 |
| COC(=O)c1ccc(OC(=O)CCCc2ccc(NC(=O)c3ccccc3-c3ccc(C(F)(F)F)cn3)c(C(=O)N(C)C)c2)cc1 [Compound 1-19, 4-(4-{3-dimethylcarbamoyl-4-[2-(5-trifluoromethylpyridin-2-yl)benzoylamino]phenyl}butyryloxy)benzoic acid methyl ester] | 10 to 100 |
| COC(=O)c1ccc(OC(=O)CCCc2ccc(NC(=O)c3ccccc3-c3ccc(C(F)(F)F)cc3)c(C(=O)N(C)C)c2)c(C(F)(F)F)c1 [Compound 1-20, 4-(4-{3-dimethylcarbamoyl-4-[(4′-trifluoromethylbiphenyl-2-carbonyl)amino]phenyl}butyryloxy)-3-trifluoromethylbenzoic acid methyl ester] | 10 to 100 |

Second part, the compound after the results:

| IC50 [nM] | Compound |
| --- | --- |
| 10 to 100 | CN(C)C(=O)c1cc(CCC(=O)Oc2ccccc2)ccc1NC(=O)c1ccccc1-c1ccc(C(F)(F)F)cc1 [Compound 1-1, 3-{3-dimethylcarbamoyl-4-[(4′-trifluoromethylbiphenyl-2-carbonyl)amino]phenyl}propionic acid phenyl ester] |
| 100 to 1000 | CN(C)C(=O)c1cc(CC(=O)Oc2ccc(F)cc2)ccc1NC(=O)c1ccccc1-c1ccc(C(F)(F)F)cc1 [Compound 1-4, {3-dimethylcarbamoyl-4-[(4′-trifluoromethylbiphenyl-2-carbonyl)amino]phenyl}acetic acid 4-fluorophenyl ester] |
| < 10 | COC(=O)c1ccc(OC(=O)CCCc2ccc(NC(=O)c3ccccc3-c3ccc(C(F)(F)F)cc3)c(C(=O)N(C)C)c2)cc1 [Compound 1-5] |
| < 10 | CC(C)OC(=O)c1ccc(OC(=O)CCCc2ccc(NC(=O)c3ccccc3-c3ccc(C(F)(F)F)cc3)c(C(=O)N(C)C)c2)cc1 [Compound 1-7, 4-(4-{3-dimethylcarbamoyl-4-[(4′-trifluoromethylbiphenyl-2-carbonyl)amino]phenyl}butyryloxy)benzoic acid isopropyl ester] |
| < 10 | CCCOC(=O)c1ccc(OC(=O)CCCc2ccc(NC(=O)c3ccccc3-c3ccc(C(F)(F)F)cc3)c(C(=O)N(C)C)c2)cc1 [Compound 1-8, 4-(4-{3-dimethylcarbamoyl-4-[(4′-trifluoromethylbiphenyl-2-carbonyl)amino]phenyl}butyryloxy) benzoic acid propyl ester] |
| < 10 | COC(=O)c1ccc(OC(=O)CCCc2ccc(NC(=O)c3ccc(C)cc3-c3ccc(C(F)(F)F)cc3)c(C(=O)N(C)C)c2)cc1 [Compound 1-9, 4-(4-{3-dimethylcarbamoyl-4-[(5-methyl-4′-trifluoromethylbiphenyl-2-carbonyl)amino]phenyl}butyryloxy) benzoic acid methyl ester] |
| < 10 | COC(=O)c1ccc(OC(=O)CCCc2ccc(NC(=O)c3ccccc3-c3ccc(C(F)(F)F)cc3)c(C(=O)N(C)C)c2)c(F)c1 [Compound 1-10, 4-(4-{3-dimethylcarbamoyl-4-[(4′-trifluoromethylbiphenyl-2-carbonyl)amino]phenyl}butyryloxy)-3-fluoro benzoic acid methyl ester] |
| < 10 | COC(=O)c1ccc(OC(=O)CCCc2ccc(NC(=O)c3ccccc3-c3ccc(C(F)(F)F)cc3)c(C(=O)N(C)C)c2)cc1C [Compound 1-14, 4-(4-{3-dimethylcarbamoyl-4-[(4′-trifluoromethylbiphenyl-2-carbonyl)amino]phenyl}butyryloxy)-2-methyl benzoic acid methyl ester] |
| < 10 | COC(=O)c1ccc(OC(=O)CCCc2ccc(NC(=O)c3ccccc3-c3ccc(C(F)(F)F)cc3)c(C(=O)N3CCCC3)c2)cc1 [Compound 1-15, 4-(4-{3-(pyrrolidine-1-carbonyl)-4-[(4′-trifluoromethylbiphenyl-2-carbonyl)amino]phenyl}butyryloxy)benzoic acid methyl ester] |
| < 10 | CCOC(=O)c1ccc(OC(=O)CCCc2ccc(NC(=O)c3ccccc3-c3ccc(C(F)(F)F)cc3)c(C(=O)N3CCCC3)c2)c(F)c1 [Compound 1-16, 3-fluoro-4-(4-{3-(pyrrolidine-1-carbonyl)-4-[(4′-trifluoromethylbiphenyl-2-carbonyl)amino]phenyl}butyryloxy)benzoic acid ethyl ester] |
